Patent US20150080475A1, “Memantine Protects Inflammation-Related Degeneration of Dopamine Neurons Through Inhibition of Over-Activated Microglia and Release of Neurotrophic Factors From Astroglia” (priority 2009, published 2015)

Columns and labels:
Type in all cases: cell-based
[1] = system: astrocyte, and micrglia; test: BrdU cytogenesis test in rat primary midbrain neuron-glia cultures; conditions: 10 μM MMT, 24 hours
Method: Rat primary mesencephalic neuron-glia cultures seeded in a 24-well culture plate at density of 5×10^5 per well were treated with 10 μM MMT or its vehicle, and simultaneously with 1 μl Brdu seven days after seeding. 24 hours later, the cultures was fixed with 3.7% of PDF for GFAF, iba-1, and DAPI staining.
(§1) In addition to the pre-treatment experiments, similar studies using post-treatment designs were conducted to determine the efficacy of MMT. In these experiments, neuron-glia cultures were either treated with MMT (10 μM) and LPS (2.5 ng/ml) at the same time, or MMT was added 30, 60, 120 or 180 min after the addition of LPS. One week later, DA uptake of the culture was assayed.

[2] = system: microglia; test: Superoxide assay (SOD-inhibitable WST-1 reduction) after LPS; conditions: 30 min after LPS
Method: Extracellular superoxide (O2^−) production from microglia was determined by measuring the superoxide dismutase (SOD) inhibitable reduction of 2-(4-lodophenyl)-3-(4-nitrophenyl)-5-(2,4,-disulfophenyl)-2H-tetrazolium, monosodium salt, WST-1. Briefly, 200 μL of primary enriched-microglia were seeded (1×10^5/well) in 96-well plates. The cells were then incubated for 24 h at 37° C. in a humidified atmosphere of 5% CO2 and 95% air. Immediately before treatment, cells were washed twice with Hanks balanced salt solution (HBSS). To each well, 100 μL of HBSS with or without SOD (600 U/mL), 50 μL of vehicle or LPS, and 50 μL of WST-1 (1 mM) in HBSS were added. The cultures were incubated for 30 min at 37° C. and 5% CO2 and 95% air. The absorbance at 450 nm was read with a Spectra Max Plus microtiter plate spectrophotometer (Molecular Devices, Sunnyvale, Calif., USA). […] The amount of SOD-inhibitable superoxide was calculated and expressed as percent of vehicle-treated control cultures.
(§2) Neuron-glia cultures were pretreated for 30 min with MMT (3 μM) or vehicle before LPS stimulation. […] Production of superoxide (30 min after LPS) and iROS (2 h after LPS) was decreased by MMT treatment (FIGS. 6A and 6B). […] The production of PGE2 in cultures pretreated with 3 and 10 μM MMT decreased by 23% and 27% respectively (FIG. 6E).

[3] = system: TH-ir neurons; test: Cell count of TH-ir neurons in rat neuron-glia cultures
Method: For visual counting of TH-ir neurons after Immunostaining, nine representative areas per well of the 24-well plate were counted under the microscope at 100¥ magnification. To measure the average TH-ir dendrite, 50 TH-ir representative neurons in each well were selected and three wells for each treatment condition were selected. In addition, the average dendrite length of TH-ir neurons was measured (Liu Y X, Qin L, Wilson B C, An L, Hong J S and Liu B (2002b) Inhibition by naloxone stereoisomers of -amyloid peptide (1-42)-induced superoxide production in microglia and degeneration of cortical and mesencephalic neurons. J Pharmacol Exp Ther 302: 1212-1219.).
Rat mesencephalic neuron-glia cultures were pretreated for 30 min with vehicle or 1, 3, 10 μM MMT before adding LPS (2.5 to 5 ng/ml) to the cultures. One week later, the neurotoxic effect of LPS on DA neurons were assessed by both [H^3] DA uptake, which measures the functional capacity of high affinity uptake of DA cells and cell count of tyrosine hydroxylase-positive (TH-ir) cells. [H^3] […] MMT alone increased the uptake capacity by 30-80% in 3 and 10 μM of MMT, respectively. […] The neurotrophic effect of MMT is astrocyte-dependent. Astrocytes, not micrglia, contribute to the neurotrophic effect of MMT at 1-10 μM MMT (FIG. 10).
as §1
DA neurons were recognized with the polyclonal antibody against tyrosine hydroxylase (TH) and microglia was detected with the OX-42 antibody against CR3 receptor. […] To quantify cell numbers, nine representative areas per well in the 24-well plate were counted under the microscope at 100× magnification by two individuals. […]

[4] = system: microglia; test: Intracellular reactive oxygen species assay (DCFH oxidation) after LPS; conditions: 2 h after LPS
Method: The production of intracellular reactive oxygen species (ROS) was measured by DCFH oxidation. The DCFH-DA reagent passively enters cell where it is de-acetylated by esterase to nonfluorescent DCFH. Inside the cell, DCFH reacts with ROS to form DCF, the fluorescent product. For this assay, 10 mM DCFH-DA was dissolved in methanol and was diluted 500-fold in HBSS to give a 20 μM concentration of DCFH-DA. Enriched-microglia cultures seeded (5×10^4) in 96-well plates were then exposed to DCFH-DA for 1 h, followed by treatment with HBSS containing several concentrations of LPS or substance P for 2 h. After incubation, the fluorescence was read at the 485 nm excitation and 530 nm emission on a fluorescence plate reader. […] To calculate the amount of intracellular ROS produced, the mean control treatment was subtracted from the mean treatment group.
as §2

With `CC12CC3CC(C)(C1)CC(N)(C3)C2.Cl` [MMT, 1-amino-3,5-dimethyladamantane hydrochloride] the “proliferation of astrocyte and microglia compared with control” value [1] was “does not induce more proliferation”, the production of superoxide [2] was “decreased” and the “effect on LPS-induced reduction in the number of TH-ir neurons” value ([3]; MMT 3 and 10 μM) was “significantly attenuated the LPS-induced reduction in the number of TH-ir neurons”. For the same compound, the “growth of neurites (morphological observation)” value ([3]; MMT alone) was “enhanced the growth of neurites”, the “number of TH-ir (DA) neurons vs vehicle control” value ([3]; MMT alone) was “increased the survival DA neuron number” and the “production of iROS” value [4] was “decreased”.
